Patent publication US20230301998A1, “METHODS AND COMPOSITIONS FOR INDUCTION OF ANTITUMOR IMMUNITY” (Sanford Burnham Prebys Medical Discovery Institute, priority 2020, published 2023)
Values belong to the compound of their own block, whether it stands above or below them.

Columns and labels:
PRMT5 [1] = biological target: T1, PRMT5 (Mus musculus, UniProt Q8CIG8); assay: IP/immunoblot of IFI204 Arg methylation and SHARPIN interaction in B16 cells after PRMT5 inhibition; assay type: cell-based
T1 construct: endogenous in cells; host or cells: B16F10 murine melanoma cells (ATCC)
T1 sequence (Q8CIG8 whole entry): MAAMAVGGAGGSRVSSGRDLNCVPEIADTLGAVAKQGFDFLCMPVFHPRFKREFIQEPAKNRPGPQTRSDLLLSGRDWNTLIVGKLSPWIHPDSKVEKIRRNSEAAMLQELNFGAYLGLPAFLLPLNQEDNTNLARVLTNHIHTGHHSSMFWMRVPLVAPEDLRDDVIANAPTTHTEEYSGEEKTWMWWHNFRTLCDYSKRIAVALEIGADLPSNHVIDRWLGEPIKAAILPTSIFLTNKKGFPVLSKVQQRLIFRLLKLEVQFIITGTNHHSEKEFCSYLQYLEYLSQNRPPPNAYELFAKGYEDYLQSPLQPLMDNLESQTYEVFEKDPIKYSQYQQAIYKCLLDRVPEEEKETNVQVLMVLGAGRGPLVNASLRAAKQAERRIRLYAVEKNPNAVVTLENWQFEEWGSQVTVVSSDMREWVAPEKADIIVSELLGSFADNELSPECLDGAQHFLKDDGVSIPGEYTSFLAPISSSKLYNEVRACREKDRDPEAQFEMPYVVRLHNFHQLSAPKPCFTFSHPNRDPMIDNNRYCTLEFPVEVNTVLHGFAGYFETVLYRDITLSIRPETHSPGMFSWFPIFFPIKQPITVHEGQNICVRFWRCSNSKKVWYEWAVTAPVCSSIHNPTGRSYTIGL
T1 sequence (Q99J09 whole entry partner): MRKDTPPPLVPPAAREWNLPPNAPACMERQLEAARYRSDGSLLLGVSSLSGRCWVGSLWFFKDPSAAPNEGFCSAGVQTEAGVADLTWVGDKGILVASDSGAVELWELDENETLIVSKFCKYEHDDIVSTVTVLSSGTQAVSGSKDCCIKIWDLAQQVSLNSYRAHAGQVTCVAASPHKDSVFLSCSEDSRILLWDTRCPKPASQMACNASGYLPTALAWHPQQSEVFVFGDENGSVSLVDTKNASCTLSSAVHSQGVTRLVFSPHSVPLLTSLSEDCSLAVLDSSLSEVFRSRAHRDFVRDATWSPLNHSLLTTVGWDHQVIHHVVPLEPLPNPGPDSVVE
Experimental: Immunoblotting was performed using standard protocols. Melanoma cells were lysed by incubation in RIPA buffer [50 mM Tris-HC1, pH7.4, 1% (v/v) NP40, 0.1% (w/v) sodium deoxycholate, 0.1% (w/v) sodium dodecyl sulfate, 150 mM NaCl, 1mM EDTA, and protease and phosphatase inhibitor cocktails (Thermo Fisher Scientific)] and freeze-thawed 3 times. For immunoprecipitation HEK293T cells were lysed in 1% Triton X-100 buffer [50 mM Tris-HC1, pH7.4, 1% (v/v) Triton X-100, 150 mM NaCl, 1 mM EDTA, and protease and phosphatase inhibitor cocktails (Thermo Fisher Scientific)] and freeze-thawed 3 times. Lysates were then incubated overnight with indicated antibodies and then for 4 hr with protein A/G agarose beads (Santa Cruz Biotechnology) under gentle mixing. Proteins were eluted by addition of lysis buffer and boiled in Laemmli buffer before separation on SDS-PAGE and transfer to a PVDF membrane. […] Protein bands were visualized and quantified using an Odyssey Infrared Imaging System (LiCor Biosciences) or ChemiDoc Imaging System (Bio-Rad). […] STING polymer was analyzed using BlueNative(BN) PAGE (3). […] STING dimers and polymers were detected using a STING antibody (D2P2F, Cell Signaling),Immunofluorescence

cGAS/STING pathway = assay: dsDNA (V70mer)-stimulated cGAS/STING signalling in B16 cells (qPCR, western blot); assay type: cell-based, mouse
PRMT5 [2] = biological target: T2, PRMT5 (Homo sapiens, UniProt O14744); assay: IP/immunoblot of IFI16 Arg methylation and SHARPIN interaction in human melanoma cells after PRMT5 inhibition; assay type: cell-based
T2 construct: endogenous in cells; host or cells: A375 and WM115 human melanoma cells
T2 sequence (O14744 whole entry): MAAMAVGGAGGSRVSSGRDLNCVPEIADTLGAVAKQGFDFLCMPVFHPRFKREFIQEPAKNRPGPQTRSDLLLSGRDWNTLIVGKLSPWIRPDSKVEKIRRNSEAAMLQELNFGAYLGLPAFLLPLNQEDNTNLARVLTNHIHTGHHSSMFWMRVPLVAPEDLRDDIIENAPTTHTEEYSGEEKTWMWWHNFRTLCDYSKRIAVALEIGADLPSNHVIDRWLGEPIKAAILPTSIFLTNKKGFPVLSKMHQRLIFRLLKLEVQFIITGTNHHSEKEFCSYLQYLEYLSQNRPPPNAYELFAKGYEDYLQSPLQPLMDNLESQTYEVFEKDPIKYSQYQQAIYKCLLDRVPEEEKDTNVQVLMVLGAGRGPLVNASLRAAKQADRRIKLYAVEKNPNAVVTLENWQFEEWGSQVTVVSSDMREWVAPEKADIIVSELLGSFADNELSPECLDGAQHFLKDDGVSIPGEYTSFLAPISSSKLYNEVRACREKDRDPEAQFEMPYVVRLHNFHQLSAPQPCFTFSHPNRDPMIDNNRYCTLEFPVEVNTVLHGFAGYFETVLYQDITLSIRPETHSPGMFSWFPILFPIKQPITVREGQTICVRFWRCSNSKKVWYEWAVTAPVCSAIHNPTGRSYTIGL
T2 sequence (Q9BQA1 whole entry partner): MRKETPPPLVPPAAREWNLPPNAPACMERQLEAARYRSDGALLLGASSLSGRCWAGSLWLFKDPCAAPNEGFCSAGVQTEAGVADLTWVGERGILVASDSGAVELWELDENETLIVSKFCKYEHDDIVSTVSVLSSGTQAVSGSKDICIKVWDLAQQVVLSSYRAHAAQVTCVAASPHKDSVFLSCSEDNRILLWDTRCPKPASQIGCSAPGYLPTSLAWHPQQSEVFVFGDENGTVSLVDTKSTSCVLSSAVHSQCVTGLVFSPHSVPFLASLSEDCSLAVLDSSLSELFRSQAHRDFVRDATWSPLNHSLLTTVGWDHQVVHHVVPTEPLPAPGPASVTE
Experimental: Immunoblotting was performed using standard protocols. Melanoma cells were lysed by incubation in RIPA buffer [50 mM Tris-HC1, pH7.4, 1% (v/v) NP40, 0.1% (w/v) sodium deoxycholate, 0.1% (w/v) sodium dodecyl sulfate, 150 mM NaCl, 1mM EDTA, and protease and phosphatase inhibitor cocktails (Thermo Fisher Scientific)] and freeze-thawed 3 times. For immunoprecipitation HEK293T cells were lysed in 1% Triton X-100 buffer [50 mM Tris-HC1, pH7.4, 1% (v/v) Triton X-100, 150 mM NaCl, 1 mM EDTA, and protease and phosphatase inhibitor cocktails (Thermo Fisher Scientific)] and freeze-thawed 3 times. Lysates were then incubated overnight with indicated antibodies and then for 4 hr with protein A/G agarose beads (Santa Cruz Biotechnology) under gentle mixing. Proteins were eluted by addition of lysis buffer and boiled in Laemmli buffer before separation on SDS-PAGE and transfer to a PVDF membrane. Membranes were incubated for 1 h at room temperature with blocking solution [TBS (Tris-buffered Saline); 10 mM Tris-HC1, pH8.0, 150 mM NaCl)] containing 0.1% Tween 20 and 5% nonfat milk followed by incubation overnight at 4° C. with appropriate primary antibodies. Membranes were washed with TBS and incubated 1 h at room temperature with secondary antibody [Alexa 680-conjugated goat anti-rabbit, goat anti-mouse, donkey anti-goat (Life Technologies) or IRDye 800-conjugated goat anti-mouse (Rockland Immunochemicals)], or HRP-conjugated anti-mouse or anti-rabbit IgG antibodies. TidyBlot anti-rabbit secondary antibody (Bio-Rad) was used to detect immunoprecipitated proteins (SHARPIN). Blots were treated with HRP-conjugated antibodies and SuperSignal West Pico or Femto chemiluminescent substrate (ThermoFisher scientific). Protein bands were visualized and quantified using an Odyssey Infrared Imaging System (LiCor Biosciences) or ChemiDoc Imaging System (Bio-Rad). […] STING polymer was analyzed using BlueNative(BN) PAGE (3). […] STING dimers and polymers were detected using a STING antibody (D2P2F, Cell Signaling),Immunofluorescence

B16F10 cells = assay: B16F10 syngeneic melanoma tumor model in C57BL/6 mice (tumor volume, response, survival, immune phenotyping); assay type: in vivo, mouse; settings: for Non-responder / Responder: number of mice
Experimental: Animal experiments. All animal experiments were conducted with approval of the Institutional Animal Care and Use Committee of Sanford Burnham Prebys Medical Discovery Institute (AUF#18-044). The murine melanoma lines B16F10, YUMM1.7 , and YUMMER1.7 were injected subcutaneously (2.0×10^5 cells of B16F10 or YUMM1.7; 4.0 ×10^5 cells of YUMMER1.7) into the lower right flank of 6-8-week-old male C57BL/6 (B16F10, YUMM1.7, YUMMER1.7) or Nod-Scid-Gamma (NSG) (B16F10, YUMMER1.7) mice. To induce transduced inducible shPRMT5, doxycycline (10 mg/ml, Fisher Bioreagents) was prepared in methylcellulose solution (0.5% hydroxylmethylcellulose, 0.2% Tween80) and administered to mice (0.2 ml, oral gavage, QD)Tumor sizes were monitored using calipers. At indicated time points, tumors were collected, 21 weighed and assessed for immune phenotypes using flow cytometry or immunofluorescence. To assess efficacy of immune checkpoint antibodies, mice were grafted with B16F10 or YUMM1.7 (2.0×10^5 cells, s.c.) cells and treated with 200 μg control IgG [rat IgG2a; BE0089 (BioXcell)], anti-CD152 (CTLA-4) [9H10 (BE0131, BioXcell)] or anti-CD279 (PD-1) [RMP1-14 (BE0146, BioXcell)]. Antibodies were injected (i.p.) 3 - 5 times (every 3 days starting from the indicated date). […] Antibodies were injected (i.p.) every 3 days starting one day prior to tumor cell inoculation. The efficiency of depletion was assessed using flow cytometry of blood samples collected at day 8 after tumor inoculation. To assess percent survival of animals, mice bearing tumors exceeding 2,000 mm^3 were defined as “dead”. Gene set enrichment (GSEA) and Ingenuity Pathway (IPA) analyses
(§1) Statistical analyses were performed using Prism software (version 7.00, GraphPad). For comparison of means of two groups with normal (or approximately normal) distributions, an un-paired t-test was applied. To compare means between >2 groups, one-way analysis of variance (ANOVA) was used with multiple comparison corrections (Dunnett's or Tukey's test). For animal experiments, two-way ANOVA (time and treatment) was used with Tukey's multiple comparison test. For Kaplan-Meier plots to compare overall survival, a log-rank test was used to determine significance of differences between groups. To evaluate response to therapy in a mouse model, Fisher's exact test (version 7.00, GraphPad) was used. For that analysis, a tumor with volume <50% of control tumors was defined as “responding to treatment”. For all analyses, a difference with p<0.05 was considered significant, unless specified.
For immune phenotyping, B16F10 tumors were collected and processed by chopping and mincing using a tube-secured cell strainer (70 p.m poresize, Falcon) to prepare single cells for flow cytometry. YUMMER1.7 cells were processed by chopping, following incubation in Collargenase D solution [0.1% (w/v) Collagenase D, 0.5% (w/v) BSA, 100 μg/ml DNase in PBS] for 1 hr at 30° C. and mincing using cells strainer. […] All antibodies were from Biolegend. Stained cells were fixed in 1% formaldehyde (Sigma) in PBS (pH7.4) for 15 min at 4° C. and analyzed with BD LSRFortessa (BD Biosciences) flow cytometry. For intranuclear staining of FoxP3, cells were fixed and permearbilized using a FoxP3/Transcription factor Fixation/Permearbilization kit (ThermoFisher Scientific). […] Cells were stained with antibody cocktail for surface markers [CD45.2, CD4, and CD8] and followed by staining with intraceullar cytokine antibodies [IFN gamma (APC), TNF alpha(FITC) and IL-2(PE)]. The number of specific immune cells per gram of tumor was calculated based on the percentage of specified immune cells identified in FACS (relative to the total number of tumors cells) per tumor weight. […] Cells were fixed and analyzed as above. To assess effects efficiency of in vivo depletion of CD8 T or NK cells, immune cells were isolated from mouse blood and RBCs were lysed using hypotonic buffer [15 mM NH4C1, 10 mM KHCO3, 0.1mM Na2EDTA] for 1 hr at 4° C.

YUMM1.7 cells = assay: YUMM1.7 syngeneic melanoma tumor model in C57BL/6 mice (tumor volume, response); assay type: in vivo, mouse; settings: for Non-responder / Responder: number of mice
Experimental: Animal experiments. All animal experiments were conducted with approval of the Institutional Animal Care and Use Committee of Sanford Burnham Prebys Medical Discovery Institute (AUF#18-044). The murine melanoma lines B16F10, YUMM1.7 , and YUMMER1.7 were injected subcutaneously (2.0×10^5 cells of B16F10 or YUMM1.7; 4.0 ×10^5 cells of YUMMER1.7) into the lower right flank of 6-8-week-old male C57BL/6 (B16F10, YUMM1.7, YUMMER1.7) or Nod-Scid-Gamma (NSG) (B16F10, YUMMER1.7) mice. To induce transduced inducible shPRMT5, doxycycline (10 mg/ml, Fisher Bioreagents) was prepared in methylcellulose solution (0.5% hydroxylmethylcellulose, 0.2% Tween80) and administered to mice (0.2 ml, oral gavage, QD)Tumor sizes were monitored using calipers. At indicated time points, tumors were collected, 21 weighed and assessed for immune phenotypes using flow cytometry or immunofluorescence. To assess efficacy of immune checkpoint antibodies, mice were grafted with B16F10 or YUMM1.7 (2.0×10^5 cells, s.c.) cells and treated with 200 μg control IgG [rat IgG2a; BE0089 (BioXcell)], anti-CD152 (CTLA-4) [9H10 (BE0131, BioXcell)] or anti-CD279 (PD-1) [RMP1-14 (BE0146, BioXcell)]. Antibodies were injected (i.p.) 3 - 5 times (every 3 days starting from the indicated date). […] To deplete NK or CD8+ cells, mice were treated with anti-NK1.1 antibody [PK136 (BE0036, BioXcell)] or anti-CD8 antibody [2.43(BE0061, BioXcell), respectively; controls were treated with 200 μtg IgG [rat IgG2b (BE0090, BioXcell)]. Antibodies were injected (i.p.) every 3 days starting one day prior to tumor cell inoculation. The efficiency of depletion was assessed using flow cytometry of blood samples collected at day 8 after tumor inoculation. To assess percent survival of animals, mice bearing tumors exceeding 2,000 mm^3 were defined as “dead”. Gene set enrichment (GSEA) and Ingenuity Pathway (IPA) analyses
as §1

[3] = system: Nlrc5 and Nlrc5 target genes; assay: Expression of antigen presentation genes / surface MHCI in B16 cells; assay type: cell-based, mouse; settings: B16 cells, MTA 100 μM for 24 hr, qPCR (FIG. 14E)
RIG-I/TLR3 = assay: dsRNA poly(I:C)-induced type I interferon response in B16 cells (qPCR); assay type: cell-based, mouse; settings: B16 melanoma cells, poly(I:C) 250 ng/ml 6 hr (FIG. 12J)
[4] = FIG. 17E: B16 in C57BL/6, PRMT5i GSK3326595 40 mg/kg from day 10, anti-PD-1 200 μg/mouse days 11, 14, 17, responder = tumor volume <50% of control
[5] = FIG. 18C: B16F10 in syngeneic mice, PRMT5i GSK3326595 40 mg/kg QD from day 6, anti-PD1 days 8, 11, 14, 17
[6] = FIG. 17F: YUMM1.7 in C57BL/6, PRMT5i from day 7, anti-PD-1 days 8, 11, 14, 17
[7] = FIG. 17G: YUMM1.7 in C57BL/6, anti-CD8 200 μg/mouse every three days, PRMT5i from day 8, anti-PD-1 days 9, 12, 15, 18

IFI204 interaction with SHARPIN (PRMT5 [1]; EPZ015666 10 μM (FIG. 8D)): stronger interaction with SHARPIN
reduced IFI204 methylation (PRMT5 [1]; EPZ015666 10 μM (FIG. 8F)): 57%
decrease in IFI16 methylation (PRMT5 [2]; A375 melanoma cells, EPZ015666 10 μM (FIG. 8E)): 50%
degree of interaction between IFI16 and SHARPIN (PRMT5 [2]; A375 melanoma cells, EPZ015666 10 μM (FIG. 10C)): enhanced
decrease in IFI16 methylation (PRMT5 [2]; WM115 cells (MTAP-deleted), EPZ015666 10 μM (FIG. 10D)): 15%
Compound: O=C(NC[C@H](O)CN1CCc2ccccc2C1)c1cc(NC2COC2)ncn1 [EPZ015666]
expression of Ifnb1, Cc15 and Cxcl10 (cGAS/STING pathway; B16 cells treated 24 hr, then V70mer dsDNA 500 ng/ml 6 h, qPCR (FIG. 11B)): increased
TBK1-IRF3 signaling (cGAS/STING pathway; B16 melanoma, V70mer 1.5 μg/ml, western blot (FIG. 11G)): activated TBK1-IRF3 signaling

Compound: CC(=O)N1CCC(Nc2cc(C(=O)NC[C@H](O)CN3CCc4ccccc4C3)ncn2)CC1 [GSK3326595]
immune cell infiltration or activation in tumors (B16F10 cells; B16F10, PRMT5i monotherapy 40 mg/kg QD from day 8, tumors day 15, flow cytometry (FIGS. 18E-G)): notable changes were not observed
response rate across experiments (B16F10 cells; B16 and YUMM1.7 models, FIGS. 17E-F, 18C-D, table 5): 14.3˜66.7%
Non-responder (B16F10 cells; [4]): 6
Responder (B16F10 cells; [4]): 1
Response rate (%) (B16F10 cells; FIG. 17E: B16 in C57BL/6, PRMT5i from day 10, anti-PD-1 days 11, 14, 17, percent of responders in group): 14.3%
Response rate (%) (B16F10 cells; FIG. 18C: B16F10, PRMT5i 40 mg/kg QD from day 6, anti-PD1 days 8, 11, 14, 17): 66.7%
Non-responder (B16F10 cells; [5]): 2
Responder (B16F10 cells; [5]): 4
Response rate (%) (YUMM1.7 cells; [6]): 28.6%
Non-responder (YUMM1.7 cells; [6]): 5
Responder (YUMM1.7 cells; [6]): 2
Non-responder (YUMM1.7 cells; [7]): 6
Responder (YUMM1.7 cells; [7]): 1
Response rate (%) (YUMM1.7 cells; FIG. 17G: YUMM1.7 in C57BL/6, anti-CD8 depletion, PRMT5i from day 8, anti-PD-1 days 9, 12, 15, 18): 14.3%

Compound: CSC[C@H]1O[C@@H](n2cnc3c(N)ncnc32)[C@H](O)[C@@H]1O [MTA]
basal Nlrc5 expression and that of Nlrc5 target genes (Tap1, B2m, Psmb9) [3]: increased

Compound: poly(I:C)
Ifnb1 and chemokine expression (RIG-I/TLR3): induced
